In article PMC3196554 (Chemical research in toxicology, 2010):
Like-named read-outs stand apart in the source and are kept apart here.

What was measured:
[1] = for Amount in urine collected for 10 h after consumption of cooked beef: Mean ± SD of 3 independent measurements; for % Dose in urine collected for 10 h after consumption of cooked beef: metabolites as % of dose of parent MeIQx or PhIP; for Amount in urine, Overall mean: mean of 3 days
[2] = human, in vivo
[3] = cited from earlier work
[4] = test system: P450 1A2; settings: subjects given furafylline prior to cooked beef; cited from earlier work
[5] = test system: P450 1A2; settings: human liver microsomes, cited from earlier work
[6] = Acid hydrolysis of conjugates; type: physicochemical; settings: 50% (v/v) glacial acetic acid or 1 N HCl, 80 °C for 8 h

Q: For `Cn1c(=NO)n([C@@H]2O[C@H](C(=O)O)[C@@H](O)[C@H](O)[C@H]2O)c2ncc(-c3ccccc3)cc21` [HONH-PhIP-N3-GI, N3-(ß-1-glucosidurony1)-N-hydroxy-2-amino-1-methy1-6-phenylimidazo[4,5-b]pyridine], which “Amount in urine collected for 10 h after consumption of cooked beef” value (“Amount in urine collected for 10 h” below) ([1]; Subject S-001) is on record?
A: 238 ± 7.4 ng

Q: What about the “% Dose in urine collected for 10 h after consumption of cooked beef” value (from here on “% Dose in urine collected for 10 h”) ([1]; Subject S-001) of the same compound?
A: 2.6 % Dose

Q: And the “Amount in urine collected for 10 h” value ([1]; Subject S-003)?
A: 189 ± 10.6 ng

Q: And the “% Dose in urine collected for 10 h” value ([1]; Subject S-003)?
A: 2.1 % Dose

Q: What about the “Amount in urine collected for 10 h” value ([1]; Subject S-005) of the same compound?
A: 176 ± 4.2 ng

Q: What about the “% Dose in urine collected for 10 h” value ([1]; Subject S-005) of the same compound?
A: 1.9 % Dose

Q: What about the “Amount in urine collected for 10 h” value ([1]; Subject S-008) of the same compound?
A: 222 ± 10.0 ng

Q: What about the “% Dose in urine collected for 10 h” value ([1]; Subject S-008) of the same compound?
A: 2.5 % Dose

Q: And the “Amount in urine collected for 10 h” value ([1]; Subject S-009)?
A: 191 ± 5.5 ng

Q: What about the “% Dose in urine collected for 10 h” value ([1]; Subject S-009) of the same compound?
A: 2.1 % Dose

Q: What about the “Amount in urine collected for 10 h” value ([1]; Subject S-012) of the same compound?
A: 319 ± 6.0 ng

Q: And the “% Dose in urine collected for 10 h” value ([1]; Subject S-012)?
A: 3.5 % Dose

Q: What about the “Amount in urine collected for 10 h” value ([1]; Subject S-013) of the same compound?
A: 179 ± 7.0 ng

Q: And the “% Dose in urine collected for 10 h” value ([1]; Subject S-013)?
A: 2.0 % Dose

Q: What about the “Amount in urine collected for 10 h” value ([1]; Subject S-014) of the same compound?
A: 89.5 ± 3.3 ng

Q: What about the “% Dose in urine collected for 10 h” value ([1]; Subject S-014) of the same compound?
A: 1.0 % Dose

Q: And the “Amount in urine collected for 10 h” value ([1]; Subject S-015)?
A: 216 ± 12.0 ng

Q: What about the “% Dose in urine collected for 10 h” value ([1]; Subject S-015) of the same compound?
A: 2.4 % Dose

Q: And the “Amount in urine collected for 10 h” value ([1]; Subject S-020)?
A: 253 ± 4.9 ng

Q: And the “% Dose in urine collected for 10 h” value ([1]; Subject S-020)?
A: 2.8 % Dose

Q: With `Cc1cnc2cc3nc(N)n(C)c3cc2n1` [MeIgQx, 2-amino-1,7-dimethylimidazo[4,5-g]quinoxaline] as the compound, how does the “Increase in amount in urine following acid hydrolysis” value [2] read?
A: up to 5 fold

Q: For `Cc1cnc2ccc3c(nc(N)n3C)c2n1` [MeIQx, 2-amino-3,8-dimethylimidazo[4,5-f]quinoxaline], which pKa [3] is on record?
A: 5.94

Q: And the “Share of elimination accounted for by P450 1A2” value [4]?
A: 90%

Q: What about the “Vmax, oxidation of the 8-methyl group to form IQx-8-CH2OH” value [5] of the same compound?
A: 0.1 nmol/min/mg protein

Q: And the “Vmax, production of HONH-MeIQx” value [5]?
A: 3.9 nmol/ min/mg of protein

Q: What about the Km ([5]; read-out: Km, oxidation of the 8-methyl group to form IQx-8-CH2OH) of the same compound?
A: 3.1 µM

Q: And the Km ([5]; read-out: Km, production of HONH-MeIQx)?
A: 15 µM

Q: What about the “Amount in urine, Overall mean” value ([1]; Subject 9) of the same compound?
A: 22.1 pg/mL

Q: And the “Amount in urine, Overall mean” value ([1]; Subject 14)?
A: 10.4 pg/mL

Q: And the “Amount in urine, Overall mean” value ([1]; Subject 20)?
A: 29.2 pg/mL

Q: What about the “Amount in urine collected for 10 h” value ([1]; Subject S-001) of the same compound?
A: 80.3 ± 2.7 ng

Q: And the “% Dose in urine collected for 10 h” value ([1]; Subject S-001)?
A: 8.7 % Dose

Q: And the “Amount in urine collected for 10 h” value ([1]; Subject S-003)?
A: 26.7 ± 1.6 ng

Q: What about the “% Dose in urine collected for 10 h” value ([1]; Subject S-003) of the same compound?
A: 2.9 % Dose

Q: And the “Amount in urine collected for 10 h” value ([1]; Subject S-005)?
A: 32.4 ± 1.5 ng

Q: And the “% Dose in urine collected for 10 h” value ([1]; Subject S-005)?
A: 3.5 % Dose

Q: What about the “Amount in urine collected for 10 h” value ([1]; Subject S-008) of the same compound?
A: 33.8 ± 1.3 ng

Q: What about the “% Dose in urine collected for 10 h” value ([1]; Subject S-008) of the same compound?
A: 3.7 % Dose

Q: What about the “Amount in urine collected for 10 h” value ([1]; Subject S-009) of the same compound?
A: 45.7 ± 1.4 ng

Q: What about the “% Dose in urine collected for 10 h” value ([1]; Subject S-009) of the same compound?
A: 5.0 % Dose

Q: What about the “Amount in urine collected for 10 h” value ([1]; Subject S-012) of the same compound?
A: 48.3 ± 1.9 ng

Q: What about the “% Dose in urine collected for 10 h” value ([1]; Subject S-012) of the same compound?
A: 5.2 % Dose

Q: And the “Amount in urine collected for 10 h” value ([1]; Subject S-013)?
A: 60.9 ± 3.2 ng

Q: What about the “% Dose in urine collected for 10 h” value ([1]; Subject S-013) of the same compound?
A: 6.6 % Dose

Q: And the “Amount in urine collected for 10 h” value ([1]; Subject S-014)?
A: 20.6 ± 0.9 ng

Q: And the “% Dose in urine collected for 10 h” value ([1]; Subject S-014)?
A: 2.2 % Dose

Q: And the “Amount in urine collected for 10 h” value ([1]; Subject S-015)?
A: 39.2 ± 2.0 ng

Q: What about the “% Dose in urine collected for 10 h” value ([1]; Subject S-015) of the same compound?
A: 4.2 % Dose

Q: And the “Amount in urine collected for 10 h” value ([1]; Subject S-020)?
A: 51.5 ± 2.2 ng

Q: What about the “% Dose in urine collected for 10 h” value ([1]; Subject S-020) of the same compound?
A: 5.6 % Dose

Q: For `Cc1cnc2ccc3c(nc(NS(=O)(=O)O)n3C)c2n1` [MeIQx-N^2-SO3H, N^2-(3,8-dimethylimidazo[4,5-f]quinoxalin-2-yl)-sulfamic acid], which “Behaviour under acid hydrolysis conditions” value (shortened to “Behaviour”) [6] is on record?
A: quantitatively hydrolyzed to the parent amines

Q: Which “Behaviour” value [6] does the source give for `Cc1cnc2ccc3c(nc(N[C@@H]4O[C@H](C(=O)O)[C@@H](O)[C@H](O)[C@H]4O)n3C)c2n1` [MeIQx-N^2-Gl, N^2-(ß-1-glucosiduronyl)-2-amino-3,8-dimethylimidazo[4,5-f]quinoxaline] here?
A: quantitatively hydrolyzed to the parent amines

Q: For `Cn1c(N)nc2ncc(-c3ccc(O)cc3)cc21` [4'-HO-PhIP, 2-amino-1-methyl-6-(4′-hydroxy)-phenylimidazo[4,5-b]pyridine], which “Amount in urine collected for 10 h” value ([1]; Subject S-001) is on record?
A: 20.1 ± 9.9 ng

Q: What about the “% Dose in urine collected for 10 h” value ([1]; Subject S-001) of the same compound?
A: 0.4 % Dose

Q: And the “Amount in urine collected for 10 h” value ([1]; Subject S-003)?
A: 35.0 ± 3.4 ng

Q: And the “% Dose in urine collected for 10 h” value ([1]; Subject S-003)?
A: 0.7 % Dose

Q: What about the “Amount in urine collected for 10 h” value ([1]; Subject S-005) of the same compound?
A: 41.7 ± 0.9 ng

Q: And the “% Dose in urine collected for 10 h” value ([1]; Subject S-005)?
A: 0.8 % Dose

Q: What about the “Amount in urine collected for 10 h” value ([1]; Subject S-008) of the same compound?
A: 27.0 ± 3.8 ng

Q: What about the “% Dose in urine collected for 10 h” value ([1]; Subject S-008) of the same compound?
A: 0.5 % Dose

Q: And the “Amount in urine collected for 10 h” value ([1]; Subject S-009)?
A: 25.2 ± 2.8 ng

Q: What about the “% Dose in urine collected for 10 h” value ([1]; Subject S-009) of the same compound?
A: 0.5 % Dose

Q: And the “Amount in urine collected for 10 h” value ([1]; Subject S-012)?
A: 50.1 ± 2.8 ng

Q: What about the “% Dose in urine collected for 10 h” value ([1]; Subject S-012) of the same compound?
A: 1.0 % Dose

Q: What about the “Amount in urine collected for 10 h” value ([1]; Subject S-013) of the same compound?
A: 37.2 ± 5.2 ng

Q: What about the “% Dose in urine collected for 10 h” value ([1]; Subject S-013) of the same compound?
A: 0.7 % Dose

Q: And the “Amount in urine collected for 10 h” value ([1]; Subject S-014)?
A: 18.4 ± 1.2 ng

Q: And the “% Dose in urine collected for 10 h” value ([1]; Subject S-014)?
A: 0.4 % Dose

Q: And the “Amount in urine collected for 10 h” value ([1]; Subject S-015)?
A: 18.3 ± 2.9 ng

Q: What about the “% Dose in urine collected for 10 h” value ([1]; Subject S-015) of the same compound?
A: 0.3 % Dose

Q: What about the “Amount in urine collected for 10 h” value ([1]; Subject S-020) of the same compound?
A: 38.3 ± 2.5 ng

Q: What about the “% Dose in urine collected for 10 h” value ([1]; Subject S-020) of the same compound?
A: 0.7 % Dose

Q: Which results are given for `Cn1c(N(O)[C@@H]2O[C@H](C(=O)O)[C@@H](O)[C@H](O)[C@H]2O)nc2ncc(-c3ccccc3)cc21` [HONH-PhIP-N^2-GI, N^2-(ß-1-glucosidurony1)-N-hydroxy-2-amino-1-methy1-6-phenylimidazo[4,5-b]pyridine]?
A: Amount in urine collected for 10 h after consumption of cooked beef ([1]; Subject S-001): 2201 ± 37.3 ng; % Dose in urine collected for 10 h after consumption of cooked beef ([1]; Subject S-001): 24.3 % Dose; Amount in urine collected for 10 h after consumption of cooked beef ([1]; Subject S-003): 2692 ± 121 ng; % Dose in urine collected for 10 h after consumption of cooked beef ([1]; Subject S-003): 29.7 % Dose; Amount in urine collected for 10 h after consumption of cooked beef ([1]; Subject S-005): 2112 ± 88.5 ng; % Dose in urine collected for 10 h after consumption of cooked beef ([1]; Subject S-005): 23.3 % Dose; Amount in urine collected for 10 h after consumption of cooked beef ([1]; Subject S-008): 2198 ± 88.2 ng; % Dose in urine collected for 10 h after consumption of cooked beef ([1]; Subject S-008): 24.3 % Dose; Amount in urine collected for 10 h after consumption of cooked beef ([1]; Subject S-009): 2009 ± 31.0 ng; % Dose in urine collected for 10 h after consumption of cooked beef ([1]; Subject S-009): 22.2 % Dose; Amount in urine collected for 10 h after consumption of cooked beef ([1]; Subject S-012): 2621 ± 86.0 ng; % Dose in urine collected for 10 h after consumption of cooked beef ([1]; Subject S-012): 29.0 % Dose; Amount in urine collected for 10 h after consumption of cooked beef ([1]; Subject S-013): 1848 ± 25.6 ng; % Dose in urine collected for 10 h after consumption of cooked beef ([1]; Subject S-013): 20.4 % Dose; Amount in urine collected for 10 h after consumption of cooked beef ([1]; Subject S-014): 1274 ± 29.0 ng; % Dose in urine collected for 10 h after consumption of cooked beef ([1]; Subject S-014): 14.1 % Dose; Amount in urine collected for 10 h after consumption of cooked beef ([1]; Subject S-015): 2067 ± 103 ng; % Dose in urine collected for 10 h after consumption of cooked beef ([1]; Subject S-015): 22.8 % Dose; Amount in urine collected for 10 h after consumption of cooked beef ([1]; Subject S-020): 2223 ± 15.6 ng; % Dose in urine collected for 10 h after consumption of cooked beef ([1]; Subject S-020): 24.6 % Dose

Q: Which “Behaviour” value [6] does the source give for `Cn1c(N[C@@H]2O[C@H](C(=O)O)[C@@H](O)[C@H](O)[C@H]2O)nc2ncc(-c3ccccc3)cc21` [PhIP-N^2-Gl, N^2-(ß-1-glucosidurony1)-2-amino-1-methy1-6-phenylimidazo[4,5-b]pyridine] here?
A: quantitatively hydrolyzed to the parent amines

Q: What about the “Amount present in urine samples” value ([1]; urine after meat consumption, LOQ ~50 pg/mL) of the same compound?
A: ~ 50 pg/mL
